For series [1], the system named is ulcer induced by acetic acid. Description: Healing of the ulcer induced by acetic acid, injury area. The class given is in vivo, rats. On the procedure: The rats were anaesthetized with xilazine chloridrate and ketamine for performing a longitudinal incision right under the xiphoid apophysis.
The previous wall of the stomach was exposed and an area of the serous tissue was delimited with a plastic ring upon which was added 50 μL of acetic acid absolute with the aid of an automatic micropipette, the contact between the acid and the serous tissue being maintained during 60 seconds.
Following, the area was cleaned with saline solution and the animals had their abdominal cavities closed, being maintained in rest until complete recovery of the anesthesia and, then, they were placed at the vivarium.
(§1) After 48 hours of the surgical procedure, the oral administration of the treatments was initiated (once daily for 7 and 14 days) with EAB (300 mg/kg), lansoprazole (30 mg/kg—positive control) and vehicle (saline solution 0.9%—negative control).
(§2) The animals were weighted and observed from the induction of the injury to the end of treatments. At the end of this period, the animals were sacrificed; their stomachs were removed and opened toward the great curvature to the measurement of the ulcerative injury area.

The next series has as its system GSH. The series is described as follows: Glutathione (GSH) levels on the gastric mucous, ulcer induced by ethanol. The class given is in vivo. As to conditions: oral administration, gastric mucous of rats. On the procedure: To proceed with the measurement of the total glutathione content, the method disclosed by Anderson in 1985 was used, which bases on the total oxidation of the reduced glutathione (GSH) present in a sample to its oxidized form (GSSG), through the incubation of the sample with dithiobis nitrobenzoic acid (DTNB). The reduced DTNB acquires a yellow coloration, which can be spectrophotometrically determined. The GSSG generated is reduced by the action of the enzyme glutathione reductase in the presence of NADPH. The GSH formed oxidizes again, generating a continuous cycle, in which the reduction speed of the DTNB (and its resulting increase in the absorbance at 412 nm) is proportional to the total amount of glutathione (GSH+GSSG). To proceed with the measurement of the total glutathione content, the cytosolic extracts obtained from the stomachs of the animals of the ulcer induced by ethanol trials were used. […] The plate was placed on the spectrophotometer reader, where it was maintained for 5 minutes in a temperature of 30° C. After this period, 15 μL of glutathione reductase was added and the increase on the absorbance was registered at 412 nm. […]

Series [2] has as its system myeloperoxidase (MPO). Description: MPO activity, ulcer induced by ethanol. Type of series: in vivo. Particulars: rats.
Protocol: The myeloperoxidase activity was determined through the method disclosed by Krawisz et al. in 1984. The samples were homogenized in hexadecyl trimethyl ammonium bromide (HTAB) buffer at 0.5% (w/v) in saline phosphate buffer (50 mM, pH 6.0) with final dilution of 1:20 (w/v) until the obtainment of an uniform aspect. […]
The sample was centrifuged at 7000 G, during 10 minutes and the MPO activity was determined following the kinetics of the reaction faced to hydrogen peroxide. […]
(§4) The absorbance was determined at 450 nm and the enzyme activity was calculated by the interpolation of the standard curve, performed with MPO originated from human neutrophils.
(§5) One unity of MPO is defined as the necessary amount to degrade 1 mmol/minute of hydrogen peroxide at 25° C. The results were expressed as U/g of protein.
A short description of series [3]: Sub-chronic toxicity evaluation (organ and body weight), acetic acid ulcer model. Type of series: in vivo, rats. As to conditions: oral. On the procedure: as §1, §2
(§3) Tissue sections were also collected for preparing histological blades. The animals also had heart, lungs, liver, kidneys and testicles collected and weighted in order to verify possible signs of toxicity.

Series [4] relates to myeloperoxidase (MPO). The series is described as follows: MPO activity of the gastric mucous, ulcer induced by acetic acid. Type of series: in vivo, rats. Particulars: oral, extract 300 mg/kg, lansoprazole 30 mg/kg.
Protocol: The myeloperoxidase activity was determined through the method disclosed by Krawisz et al. in 1984. The samples were homogenized in hexadecyl trimethyl ammonium bromide (HTAB) buffer at 0.5% (w/v) in saline phosphate buffer (50 mM, pH 6.0) with final dilution of 1:20 (w/v) until the obtainment of an uniform aspect.
The homogenate was submitted to the ultrasonic bath for 10 seconds, followed by a triple process for freezing and defrosting, which facilitates the rupture of the cell structures and, as a consequence, the release of the enzyme.
The sample was centrifuged at 7000 G, during 10 minutes and the MPO activity was determined following the kinetics of the reaction faced to hydrogen peroxide.
In an ELISA plate, 50 μL of the supernatant and 150 μL of the color reactive and hydrogen peroxide (0.066%) were placed in phosphate buffer (50 mM, pH 6.0).
as §4, §5
The test system of series [5] is glutathione peroxidase (GPx). Description: Glutathione peroxidase (GPx) activity on the gastric mucous, ulcer induced by ethanol. The class given is in vivo. As to conditions: oral administration, gastric mucous of rats.
Protocol: Rats Unib-WH were submitted to fasting for 24 hours with water ad libitum. On the day of the trial, they were divided into 7 groups: saline as negative control, lansoprazole as positive control and four groups with the A. brachypoda roots extracts at different concentrations (dosages of 10, 30, 100 and 300 mg·Kg-1) dissolved in saline at 10 mL·Kg-1 concentrations.
In a further series the test system is gastric acid secretion. The series is described as follows: Pylorus ligature and evaluation of the gastric juice parameters. Particulars: intra-duodenal administration; pylorus ligature, 4 hours. The class given is in vivo, rats. On the procedure:
The rats were in fasting for 48 hours with water ad libitum. On the day of the trial, the animals were divided into four groups: saline, lansoprazole, cimetidine and treated with A. brachypoda extract.
The rats were anesthetized and underwent a longitudinal incision just below the xiphoid apophysis for the pylorus ligature.
The drug administration was carried out immediately after the ligature, intraduodenally. The incisions were sutured, and after four hours of surgery, the rats were sacrificed. The stomachs were carefully withdrawn and acid secretion was collected. After centrifugation, the volume and pH of the secretion of each animal was measured.

The test system of series [6] is ulcer induced by acetic acid. Description: Histological analysis of stomachs, ulcer induced by acetic acid. As to conditions: treated for 14 days, compared to the saline group. The class given is in vivo, rats. On the procedure: as §3
The histological cuts and blades were prepared by fixing the material in Alfac (formalin, alcohol 80% and acetic acid) for 24 hours. The pieces were, then, dehydrated and included in an appropriate medium solid.
Subsequently, the middle blocks were cut ([…] thick) on a microtome, serially. The samples were submitted to hematoxylin-eosin (HE) coloration for general observation of the structure and cellularity in light microscopy.

Series [7] concerns glutathione reductase (GR). Description: Glutathione reductase (GR) activity on the gastric mucous, ulcer induced by ethanol. As to conditions: oral administration, gastric mucous of rats. The class given is in vivo. On the procedure:
For measuring the GR activity, the enzymatic reaction was prepared with 100 μL of the sample (after centrifugation and dilution of the supernatant in phosphate buffer pH=7.4 in a 1:10 ratio) and 150 μL of the mixture formed by EDTA (0.20 mM), oxidized glutathione (1 mM) and NADPH (0.1 mM). The absorbance was read at 365 nm, between 0 and 10 minutes, according to the technique developed by Carlberg & Mannervik, 1985.
Rats Unib-WH were submitted to fasting for 24 hours with water ad libitum. On the day of the trial, they were divided into […] groups: saline as negative control, lansoprazole as positive control and four groups with the A. brachypoda roots extracts at different concentrations (dosages of 10, 30, 100 and 300 mg·Kg-1) dissolved in saline at 10 mL·Kg-1 concentrations.
The animals received the predicted treatment for each group and one hour later, 1 mL of absolute ethanol was orally administered.
After one hour of ulcer induction, the rats were sacrificed by cervical dislocation and their stomachs were withdrawn for quantification of injuries.
The injury areas were calculated, the stomachs were homogenized, the cytosolic extracts were prepared and the membranes for conducting the biochemical assays.

Marks after values point to notes of the source that are not given here.

Consider `Cc1c(OCC(F)(F)F)ccnc1C[S+]([O-])c1nc2ccccc2[nH]1` (centres unmarked) [Lansoprazole, lansoprazole], for which, in [1] (7 consecutive days, oral, extract 300 mg/kg, lansoprazole 30 mg/kg), the “Ulcerogenic injury area (FIG. 6)” value was “reduction of the injury area”. Further, the “Evolution of the healing process, recovery of the gastric mucous (FIG. 8)” value in series [1] (during 14 days of oral treatment) is “acceleration”. For the same compound, in the series on GSH, the “GSH (nmol/mg of protein)” value was 13.45 ± 2.25 nmol/mg of protein. For the same compound, the “MPO (U/mg of protein)” value in the series on myeloperoxidase (MPO) [2] is on record as 0.6 0.04* U/mg of protein; in the series on myeloperoxidase (MPO) [4] (7 consecutive days) it was 110.50 ± 33.43 U/mg of protein; in the series on myeloperoxidase (MPO) [4] (14 consecutive days), 98.05 ± 15.99 U/mg of protein. Moreover, in series [3] (sub-chronic treatment, 14 days), the “Evolution of the corporal weight (FIG. 5)” value is listed as “no significative statistical difference”. Besides, the “Relation between the weight of the organs and the animals: lungs (FIG. 3)” value in series [3] (treated for 7 days) is given as “reduction of this relation in the lungs”. Further, the “GPx (nmol/min/mg of protein)” value in series [5] is recorded as 33.54 ± 2.12 nmol/min/mg of protein. Moreover, the “pH of the gastric acid secretion” value in the series on gastric acid secretion is on record as 5.41 0.04***. Further, the “Photomicrographs of stomachs (FIG. 11)” value in [6] is reported as “speeded up the healing of the gastric mucous”. Further, the “GR (nmol/min/mg of protein)” value in series [7] is on record as 10.53 ± 0.42 nmol/min/mg of protein.
Take `CN/C(=N/CCSCc1nc[nH]c1C)NC#N` [Cimetidine, cimetidine]: in the series with gastric acid secretion, the “Volume of gastric acid secretion (mL)” value is given as 0.31 0.03** mL and the “pH of the gastric acid secretion” value is 5.39 0.11***.
